In ChEMBL document CHEMBL1135352, “8-Anilinoimidazo[4,5-g]quinoline-7-carbonitriles as Src kinase inhibitors” (Bioorg Med Chem Lett, 2002):

How the values were obtained:
[1] = target: Receptor tyrosine-protein kinase erbB-2 (Homo sapiens, UniProt P04626); assay: Inhibition of ERBB2 receptor kinase
[2] = Inhibition of Dual specificity mitogen-activated protein kinase kinase MEK
[3] = target: Epidermal growth factor receptor (Homo sapiens, UniProt P00533); assay: Inhibition of Epidermal growth factor receptor kinase
[4] = target: Proto-oncogene tyrosine-protein kinase Src (Rattus norvegicus, UniProt Q9WUD9); assay: Inhibition of src kinase activity in Src transformed rat fibroblasts; type: functional
[5] = target: Proto-oncogene tyrosine-protein kinase Src (Homo sapiens, UniProt P12931); assay: Inhibition of Src protein tyrosine kinase activity
Sequence of Proto-oncogene tyrosine-protein kinase Src (Homo sapiens, UniProt P12931) (P12931 2-536 limits assumed): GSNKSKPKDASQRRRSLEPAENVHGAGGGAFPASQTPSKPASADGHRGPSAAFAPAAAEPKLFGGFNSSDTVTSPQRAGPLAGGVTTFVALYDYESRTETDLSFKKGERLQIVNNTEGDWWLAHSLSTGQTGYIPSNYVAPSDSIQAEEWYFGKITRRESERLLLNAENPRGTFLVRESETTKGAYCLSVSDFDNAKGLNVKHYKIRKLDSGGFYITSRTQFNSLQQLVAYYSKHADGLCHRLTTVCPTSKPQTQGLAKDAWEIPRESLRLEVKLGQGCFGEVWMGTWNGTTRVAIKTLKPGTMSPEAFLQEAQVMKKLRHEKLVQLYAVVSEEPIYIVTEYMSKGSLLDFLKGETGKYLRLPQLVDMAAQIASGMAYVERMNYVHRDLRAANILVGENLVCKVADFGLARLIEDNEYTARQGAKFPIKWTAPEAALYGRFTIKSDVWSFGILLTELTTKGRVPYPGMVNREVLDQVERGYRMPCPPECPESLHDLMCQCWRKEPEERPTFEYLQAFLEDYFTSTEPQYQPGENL

Sequence of Proto-oncogene tyrosine-protein kinase Src (Rattus norvegicus, UniProt Q9WUD9) (Q9WUD9 2-536 limits assumed): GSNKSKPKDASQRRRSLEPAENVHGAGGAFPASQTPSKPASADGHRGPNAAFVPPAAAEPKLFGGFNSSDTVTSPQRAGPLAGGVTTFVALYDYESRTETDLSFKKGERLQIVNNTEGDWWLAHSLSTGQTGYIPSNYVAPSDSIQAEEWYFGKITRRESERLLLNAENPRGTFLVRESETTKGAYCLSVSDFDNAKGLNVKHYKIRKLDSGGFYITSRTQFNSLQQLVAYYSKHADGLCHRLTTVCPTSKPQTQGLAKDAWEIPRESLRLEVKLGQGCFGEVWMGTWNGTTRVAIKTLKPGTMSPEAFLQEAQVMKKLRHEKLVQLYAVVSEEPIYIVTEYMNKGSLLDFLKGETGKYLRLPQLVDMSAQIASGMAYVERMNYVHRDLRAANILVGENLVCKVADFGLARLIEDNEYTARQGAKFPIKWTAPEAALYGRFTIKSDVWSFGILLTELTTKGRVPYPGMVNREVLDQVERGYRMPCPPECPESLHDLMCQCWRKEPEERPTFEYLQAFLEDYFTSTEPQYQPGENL
Sequence of Receptor tyrosine-protein kinase erbB-2 (P04626 whole entry): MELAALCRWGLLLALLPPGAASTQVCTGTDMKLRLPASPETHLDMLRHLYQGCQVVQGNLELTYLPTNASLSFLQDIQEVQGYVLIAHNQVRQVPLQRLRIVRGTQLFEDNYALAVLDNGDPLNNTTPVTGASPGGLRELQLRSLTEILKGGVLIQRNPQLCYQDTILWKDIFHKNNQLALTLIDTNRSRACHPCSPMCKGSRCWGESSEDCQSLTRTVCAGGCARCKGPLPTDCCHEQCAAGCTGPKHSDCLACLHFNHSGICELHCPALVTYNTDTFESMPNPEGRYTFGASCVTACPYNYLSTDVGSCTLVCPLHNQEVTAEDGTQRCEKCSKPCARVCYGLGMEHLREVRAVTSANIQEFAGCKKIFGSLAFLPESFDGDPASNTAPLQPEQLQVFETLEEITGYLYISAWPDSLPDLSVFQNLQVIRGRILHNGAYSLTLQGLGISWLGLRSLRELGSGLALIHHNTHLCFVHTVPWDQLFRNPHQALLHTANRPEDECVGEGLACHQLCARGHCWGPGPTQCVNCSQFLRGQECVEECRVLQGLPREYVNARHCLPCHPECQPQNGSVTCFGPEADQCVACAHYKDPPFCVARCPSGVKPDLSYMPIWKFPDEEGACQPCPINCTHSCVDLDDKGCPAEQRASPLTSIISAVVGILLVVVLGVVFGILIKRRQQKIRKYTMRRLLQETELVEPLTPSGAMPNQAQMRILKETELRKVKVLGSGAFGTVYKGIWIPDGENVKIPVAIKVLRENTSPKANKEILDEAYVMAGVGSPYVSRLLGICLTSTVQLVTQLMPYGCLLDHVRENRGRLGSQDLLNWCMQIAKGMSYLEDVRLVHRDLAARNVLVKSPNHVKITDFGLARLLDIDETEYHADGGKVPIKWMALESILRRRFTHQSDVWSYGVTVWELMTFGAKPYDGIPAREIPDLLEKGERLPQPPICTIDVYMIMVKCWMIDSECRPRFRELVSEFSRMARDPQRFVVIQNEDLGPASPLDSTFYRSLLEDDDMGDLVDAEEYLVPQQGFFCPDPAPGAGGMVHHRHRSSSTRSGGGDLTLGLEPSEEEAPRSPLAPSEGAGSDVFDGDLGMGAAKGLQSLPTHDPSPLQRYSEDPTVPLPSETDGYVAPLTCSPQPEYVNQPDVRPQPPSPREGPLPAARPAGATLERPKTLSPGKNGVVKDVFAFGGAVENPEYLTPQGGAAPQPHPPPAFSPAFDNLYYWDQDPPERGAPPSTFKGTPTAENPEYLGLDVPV
Sequence of Epidermal growth factor receptor (P00533 whole entry): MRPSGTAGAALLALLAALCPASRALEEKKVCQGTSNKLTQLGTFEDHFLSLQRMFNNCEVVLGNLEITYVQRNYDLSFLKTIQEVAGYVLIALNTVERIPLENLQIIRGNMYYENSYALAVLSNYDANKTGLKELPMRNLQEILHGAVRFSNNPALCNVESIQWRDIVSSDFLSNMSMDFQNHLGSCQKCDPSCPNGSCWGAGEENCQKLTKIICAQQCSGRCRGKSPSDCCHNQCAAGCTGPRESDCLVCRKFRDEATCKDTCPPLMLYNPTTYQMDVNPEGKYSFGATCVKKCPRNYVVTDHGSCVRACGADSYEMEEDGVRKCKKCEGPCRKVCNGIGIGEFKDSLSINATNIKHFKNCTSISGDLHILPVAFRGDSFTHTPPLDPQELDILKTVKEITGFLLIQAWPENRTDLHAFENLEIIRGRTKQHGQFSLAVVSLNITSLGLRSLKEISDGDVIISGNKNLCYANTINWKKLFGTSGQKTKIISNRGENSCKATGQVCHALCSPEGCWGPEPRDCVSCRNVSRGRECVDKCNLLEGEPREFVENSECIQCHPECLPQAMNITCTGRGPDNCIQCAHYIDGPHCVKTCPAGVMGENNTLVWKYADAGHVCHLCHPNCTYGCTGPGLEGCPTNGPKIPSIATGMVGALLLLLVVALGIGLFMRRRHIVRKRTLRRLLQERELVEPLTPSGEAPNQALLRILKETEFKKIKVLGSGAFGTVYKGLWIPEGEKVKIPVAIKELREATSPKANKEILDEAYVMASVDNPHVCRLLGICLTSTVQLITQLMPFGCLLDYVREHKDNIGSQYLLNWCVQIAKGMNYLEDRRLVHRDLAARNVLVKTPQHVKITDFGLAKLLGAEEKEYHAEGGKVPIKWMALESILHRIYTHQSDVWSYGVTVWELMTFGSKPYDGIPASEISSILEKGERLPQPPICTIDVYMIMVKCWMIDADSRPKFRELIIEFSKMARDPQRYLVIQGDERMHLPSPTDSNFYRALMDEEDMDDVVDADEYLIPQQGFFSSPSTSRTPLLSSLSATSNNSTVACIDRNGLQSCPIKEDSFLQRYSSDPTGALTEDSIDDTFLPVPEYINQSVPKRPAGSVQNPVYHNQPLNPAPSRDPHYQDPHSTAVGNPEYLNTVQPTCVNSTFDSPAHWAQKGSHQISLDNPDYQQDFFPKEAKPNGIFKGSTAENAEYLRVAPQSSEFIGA

Row | SMILES | IC50 [1] [nM] | IC50 [2] [nM] | IC50 [3] [nM] | IC50 [4] [nM] | IC50 [5] [nM]
1 | COc1ccc(Cl)c(Nc2c(C#N)cnc3cc4[nH]cnc4cc23)c1 | > 1000 | > 1000 | > 1000 | 10500 | 30
2 | COc1ccc(C)c(Nc2c(C#N)cnc3cc4[nH]c(NCCN5CCOCC5)nc4cc23)c1 | > 1000 | > 1000 | > 1000 | > 10000 | 67
3 | COc1cc(Nc2c(C#N)cnc3cc4nc(NCCN5CCOCC5)[nH]c4cc23)cc(OC)c1OC | > 1000 | – | – | > 10000 | 180
4 | COc1cc(Nc2c(C#N)cnc3cc4c(cc23)ncn4CCN2CCOCC2)c(C)cc1Cl | > 1000 | > 1000 | > 1000 | 3900 | 29
5 | COc1cc(Nc2c(C#N)cnc3cc4[nH]cnc4cc23)cc(OC)c1OC | > 1000 | > 1000 | > 1000 | > 10000 | 330
6 | COc1cc(Nc2c(C#N)cnc3cc4c(cc23)ncn4CCN2CCOCC2)c(Br)cc1Cl | > 1000 | > 1000 | > 1000 | 670 | 9
7 | COc1cc(Nc2c(C#N)cnc3cc4[nH]cnc4cc23)c(Br)cc1Cl | > 1000 | > 1000 | > 1000 | 2800 | 16
8 | COc1ccc(Cl)c(Nc2c(C#N)cnc3cc4c(cc23)ncn4CCN2CCOCC2)c1 | > 1000 | > 1000 | > 1000 | 1200 | 43
9 | COc1ccc(C)c(Nc2c(C#N)cnc3cc4c(cc23)ncn4CCN2CCOCC2)c1 | > 1000 | > 1000 | > 1000 | 3300 | 120
10 | COc1cc(Nc2c(C#N)cnc3cc4[nH]c(CN5CCOCC5)nc4cc23)cc(OC)c1OC | > 1000 | > 1000 | > 1000 | > 10000 | 620
11 | COc1cc(Nc2c(C#N)cnc3cc4c(cc23)ncn4CCN2CCOCC2)cc(OC)c1OC | > 1000 | > 1000 | > 1000 | > 10000 | 200
12 | N#Cc1cnc2cc3[nH]cnc3cc2c1Nc1ccc(Cl)cc1Br | > 1000 | > 1000 | > 1000 | 10100 | 75
